Measurements published in PMC9841576, “Characterisation of C101248: A novel selective THIK-1 channel inhibitor for the modulation of microglial NLRP3-inflammasome” (Neuropharmacology, 2023).

Legend:
[1] = test system: NLRP3-dependent release of IL-1β; assay: LPS/ATP-induced IL-1β release from differentiated THP1 cells overexpressing human THIK-1; assay type: cell-based; details: Homo sapiens, THP-1; THIK-1 overexpressing differentiated THP1 cells, LPS/ATP; read-out: IC50, inhibition of IL-1β release
Protocol: THP1 cells, obtained from ATCC, are monocytes isolated from peripheral blood of a leukaemia patient. THP1 cells were grown in RPMI 1640 supplemented with 10% fetal bovine serum (FBS, Hyclone), 1% PenStrep (Invitrogen), and 1% GlutaMax (Invitrogen), and 0.05 mM of 2-mercaptoethanol. To overexpress human THIK-1, THP1 cells were differentiated with 100 ng/ml PMA for 24 h prior to transfection with THIK-1 mRNA synthesized as described in the supplementary material. Cell suspensions (2.5 × 10^6 cells in […]) in the presence of 200 μg/ml mRNA were electroporated with the MaxCyte (STX instrument) in an OC-25 MaxCyte Electroporation cassette using manufacturer settings for THP1 cells. Cell suspensions were transferred to a 6-well plate and allowed to recover for 20 min at 37 °C. Cells were seeded into 384-well plates (10,000 cells/well) for thallium flux assays or 96-well plates (50,000 cells/well) for inflammasome assays the following day. Overexpressing and mock-transfected cells were primed with 100 ng/ml of LPS for 3.5 h prior to addition of compounds 30 min before stimulation with 5 mM ATP. Supernatants were collected 2 h after addition of ATP and stored at −20 °C until the detection of IL-1β.
IL-1β from culture supernatants was measured with DuoSet ELISA kit (R&D Systems) following the manufacturer instructions.

Adrenergic β2 = Adrenergic β2 (Homo sapiens, UniProt P07550); assay: Promiscuity screening panel, radiometric binding; details: read-out: % inhibition at 10 µM (n=2)
Adrenergic β2, sequence (P07550 whole entry): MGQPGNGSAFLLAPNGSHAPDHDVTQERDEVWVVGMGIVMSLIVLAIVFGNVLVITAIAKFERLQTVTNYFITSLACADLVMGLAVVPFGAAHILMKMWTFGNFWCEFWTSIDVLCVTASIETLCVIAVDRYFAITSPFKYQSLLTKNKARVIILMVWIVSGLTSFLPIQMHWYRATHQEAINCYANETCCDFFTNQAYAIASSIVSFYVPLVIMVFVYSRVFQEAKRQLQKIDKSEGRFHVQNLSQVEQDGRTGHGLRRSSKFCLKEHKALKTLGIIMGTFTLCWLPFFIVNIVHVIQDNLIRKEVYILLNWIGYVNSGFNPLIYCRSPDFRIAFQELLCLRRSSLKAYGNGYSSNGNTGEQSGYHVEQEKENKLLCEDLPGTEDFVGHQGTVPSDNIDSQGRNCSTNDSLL
Protocol: (§1) C101248 was further profiled in a promiscuity screening panel, using radiometric binding assays, against a selection of 18 diverse targets at 10 μM (Supplementary Table 2).
(§2) Supplementary Table 2: Promiscuity screening panel data for C101248. Compound was screened at 10 µM, in duplicate, using radiometric binding assays

[2] = target: Transporter, Norepinephrine (NET) (Homo sapiens, UniProt P23975); assay: Promiscuity screening panel, radiometric binding; details: read-out: % inhibition at 10 µM (n=2)
Transporter, Norepinephrine (NET), sequence (P23975 whole entry): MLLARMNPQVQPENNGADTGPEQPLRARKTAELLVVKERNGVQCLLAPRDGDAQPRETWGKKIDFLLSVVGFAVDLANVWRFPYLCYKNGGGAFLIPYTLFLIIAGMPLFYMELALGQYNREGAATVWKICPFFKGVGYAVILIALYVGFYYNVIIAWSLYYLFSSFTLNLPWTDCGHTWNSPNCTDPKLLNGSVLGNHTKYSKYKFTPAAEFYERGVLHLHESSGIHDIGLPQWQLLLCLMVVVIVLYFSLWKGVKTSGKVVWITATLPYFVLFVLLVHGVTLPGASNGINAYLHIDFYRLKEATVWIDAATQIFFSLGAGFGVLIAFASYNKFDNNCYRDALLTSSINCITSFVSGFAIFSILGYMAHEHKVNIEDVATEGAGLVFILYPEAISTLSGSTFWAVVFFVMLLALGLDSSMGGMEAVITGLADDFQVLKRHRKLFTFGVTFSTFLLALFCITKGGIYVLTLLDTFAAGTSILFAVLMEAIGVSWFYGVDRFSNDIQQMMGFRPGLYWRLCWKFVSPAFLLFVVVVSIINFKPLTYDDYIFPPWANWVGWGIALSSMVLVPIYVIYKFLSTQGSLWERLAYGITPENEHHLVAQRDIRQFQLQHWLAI
Protocol: as §1, §2

Sodium Channel, Site 2 = assay: Promiscuity screening panel, radiometric binding; details: Site 2, Rat
Protocol: as §1, §2

Calcium Channel CaV1.2 = Calcium Channel CaV1.2 (Homo sapiens, UniProt Q13936); assay: Promiscuity screening panel, radiometric binding; details: read-out: % inhibition at 10 µM (n=2)
Calcium Channel CaV1.2, sequence (Q13936 whole entry): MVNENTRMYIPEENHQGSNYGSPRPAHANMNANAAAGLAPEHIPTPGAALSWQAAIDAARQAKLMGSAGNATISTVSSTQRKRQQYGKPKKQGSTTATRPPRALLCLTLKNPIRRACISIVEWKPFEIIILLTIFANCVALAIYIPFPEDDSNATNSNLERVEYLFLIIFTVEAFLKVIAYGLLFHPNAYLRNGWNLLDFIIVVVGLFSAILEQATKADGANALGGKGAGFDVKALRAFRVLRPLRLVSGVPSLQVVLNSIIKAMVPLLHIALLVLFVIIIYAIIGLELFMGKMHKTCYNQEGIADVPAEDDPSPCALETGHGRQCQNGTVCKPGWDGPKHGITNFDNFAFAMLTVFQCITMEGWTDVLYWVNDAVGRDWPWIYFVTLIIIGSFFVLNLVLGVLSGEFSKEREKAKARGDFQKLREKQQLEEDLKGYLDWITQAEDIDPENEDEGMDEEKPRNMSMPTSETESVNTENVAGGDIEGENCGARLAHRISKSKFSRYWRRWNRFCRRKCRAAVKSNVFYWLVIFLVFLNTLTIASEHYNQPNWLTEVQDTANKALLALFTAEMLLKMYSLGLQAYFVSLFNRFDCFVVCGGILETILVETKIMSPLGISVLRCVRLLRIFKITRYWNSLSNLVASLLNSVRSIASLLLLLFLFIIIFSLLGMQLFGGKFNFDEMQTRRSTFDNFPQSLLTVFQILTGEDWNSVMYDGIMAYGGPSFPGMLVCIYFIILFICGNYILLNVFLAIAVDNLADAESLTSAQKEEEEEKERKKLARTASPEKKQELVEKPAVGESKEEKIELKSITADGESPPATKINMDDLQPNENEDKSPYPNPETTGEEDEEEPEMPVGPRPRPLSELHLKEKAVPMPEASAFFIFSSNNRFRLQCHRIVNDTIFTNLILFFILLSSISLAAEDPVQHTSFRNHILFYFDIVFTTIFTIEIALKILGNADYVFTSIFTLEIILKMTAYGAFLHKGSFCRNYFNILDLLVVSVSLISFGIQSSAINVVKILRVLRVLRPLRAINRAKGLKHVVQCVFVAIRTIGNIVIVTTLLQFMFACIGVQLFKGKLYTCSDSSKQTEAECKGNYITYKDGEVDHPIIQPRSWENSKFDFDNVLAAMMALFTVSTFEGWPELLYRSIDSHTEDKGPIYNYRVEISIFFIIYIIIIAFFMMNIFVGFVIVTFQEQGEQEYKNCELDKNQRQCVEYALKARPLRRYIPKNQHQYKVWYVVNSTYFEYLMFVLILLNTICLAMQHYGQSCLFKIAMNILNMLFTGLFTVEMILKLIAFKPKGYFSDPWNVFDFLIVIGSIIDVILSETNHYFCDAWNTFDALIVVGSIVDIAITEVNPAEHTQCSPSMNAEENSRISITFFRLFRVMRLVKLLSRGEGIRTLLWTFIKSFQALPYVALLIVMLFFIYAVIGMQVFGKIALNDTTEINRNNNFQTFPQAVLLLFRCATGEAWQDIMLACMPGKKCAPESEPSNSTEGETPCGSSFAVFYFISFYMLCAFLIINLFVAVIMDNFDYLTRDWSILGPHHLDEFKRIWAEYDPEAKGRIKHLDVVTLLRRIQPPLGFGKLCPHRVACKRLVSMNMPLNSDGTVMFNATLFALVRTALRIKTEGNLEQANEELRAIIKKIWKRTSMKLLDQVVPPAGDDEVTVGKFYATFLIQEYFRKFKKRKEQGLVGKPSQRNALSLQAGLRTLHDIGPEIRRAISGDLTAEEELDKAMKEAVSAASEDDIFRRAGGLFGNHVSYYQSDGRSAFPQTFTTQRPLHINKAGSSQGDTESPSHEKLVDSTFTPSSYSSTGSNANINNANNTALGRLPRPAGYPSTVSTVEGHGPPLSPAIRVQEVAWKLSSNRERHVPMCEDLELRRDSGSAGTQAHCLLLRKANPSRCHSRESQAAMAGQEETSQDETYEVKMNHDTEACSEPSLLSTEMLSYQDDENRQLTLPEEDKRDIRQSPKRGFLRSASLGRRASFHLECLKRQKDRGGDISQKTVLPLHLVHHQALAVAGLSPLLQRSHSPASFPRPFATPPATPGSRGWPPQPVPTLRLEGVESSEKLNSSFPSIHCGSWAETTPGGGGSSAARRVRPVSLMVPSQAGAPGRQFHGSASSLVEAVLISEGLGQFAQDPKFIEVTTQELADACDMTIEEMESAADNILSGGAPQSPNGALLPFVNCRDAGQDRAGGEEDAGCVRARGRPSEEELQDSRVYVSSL
Calcium Channel CaV1.2, sequence (Q08289 whole entry partner): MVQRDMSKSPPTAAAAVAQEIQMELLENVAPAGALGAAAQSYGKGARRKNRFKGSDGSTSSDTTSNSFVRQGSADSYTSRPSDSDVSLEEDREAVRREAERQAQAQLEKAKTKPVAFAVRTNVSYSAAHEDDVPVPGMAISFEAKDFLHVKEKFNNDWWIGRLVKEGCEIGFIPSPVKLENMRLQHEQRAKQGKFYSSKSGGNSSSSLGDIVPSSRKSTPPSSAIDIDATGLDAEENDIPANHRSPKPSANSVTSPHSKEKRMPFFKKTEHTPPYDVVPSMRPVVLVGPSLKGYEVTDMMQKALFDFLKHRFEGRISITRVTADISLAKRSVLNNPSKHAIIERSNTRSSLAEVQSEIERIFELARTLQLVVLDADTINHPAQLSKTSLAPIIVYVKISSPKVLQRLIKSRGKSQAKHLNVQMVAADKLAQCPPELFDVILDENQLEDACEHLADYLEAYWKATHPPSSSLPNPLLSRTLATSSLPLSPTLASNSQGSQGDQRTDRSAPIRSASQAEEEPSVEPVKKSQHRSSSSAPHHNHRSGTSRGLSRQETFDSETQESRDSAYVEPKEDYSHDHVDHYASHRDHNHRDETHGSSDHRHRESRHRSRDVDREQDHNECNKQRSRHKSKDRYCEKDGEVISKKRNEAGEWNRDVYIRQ
Calcium Channel CaV1.2, sequence (P54289 25-956 partner limits assumed): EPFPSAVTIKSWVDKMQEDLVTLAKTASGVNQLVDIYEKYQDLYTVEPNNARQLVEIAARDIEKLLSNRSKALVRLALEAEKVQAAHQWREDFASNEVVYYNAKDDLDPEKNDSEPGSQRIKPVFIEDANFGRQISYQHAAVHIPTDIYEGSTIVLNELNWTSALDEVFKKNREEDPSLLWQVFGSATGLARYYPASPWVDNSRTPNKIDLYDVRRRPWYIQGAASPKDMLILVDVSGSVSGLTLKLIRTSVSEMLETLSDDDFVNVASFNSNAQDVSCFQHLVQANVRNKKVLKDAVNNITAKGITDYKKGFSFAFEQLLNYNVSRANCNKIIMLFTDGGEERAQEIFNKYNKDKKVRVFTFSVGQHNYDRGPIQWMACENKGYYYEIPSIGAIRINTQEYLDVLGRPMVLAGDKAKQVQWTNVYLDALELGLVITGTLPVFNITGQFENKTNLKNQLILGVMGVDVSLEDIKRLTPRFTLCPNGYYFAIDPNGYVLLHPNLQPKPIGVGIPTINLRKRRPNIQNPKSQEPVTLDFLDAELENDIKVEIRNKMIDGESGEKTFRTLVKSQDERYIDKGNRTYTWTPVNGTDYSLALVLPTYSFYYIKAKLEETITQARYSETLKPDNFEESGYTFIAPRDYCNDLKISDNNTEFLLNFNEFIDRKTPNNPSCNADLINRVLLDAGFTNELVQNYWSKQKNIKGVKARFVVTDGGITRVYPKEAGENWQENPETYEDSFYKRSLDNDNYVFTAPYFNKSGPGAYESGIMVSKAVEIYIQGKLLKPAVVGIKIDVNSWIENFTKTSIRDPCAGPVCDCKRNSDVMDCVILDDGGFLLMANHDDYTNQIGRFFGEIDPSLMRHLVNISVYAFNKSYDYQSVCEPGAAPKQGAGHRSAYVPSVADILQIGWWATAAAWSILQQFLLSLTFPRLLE
Calcium Channel CaV1.2, sequence (P54289 957-1103 partner limits assumed): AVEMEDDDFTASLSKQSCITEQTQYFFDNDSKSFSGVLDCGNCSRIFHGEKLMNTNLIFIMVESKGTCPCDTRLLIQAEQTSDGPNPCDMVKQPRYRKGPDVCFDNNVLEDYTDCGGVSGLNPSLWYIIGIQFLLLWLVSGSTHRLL
Protocol: as §1, §2

THIK-1 = target: T1, THIK-1 (Homo sapiens, UniProt Q9HB14); assay: Competition radioligand binding with 3H-C101505, membranes from HEK-hKCNK13 cells
T1 construct: expressed in transfected cells
T1 sequence (Q9HB14 1-408): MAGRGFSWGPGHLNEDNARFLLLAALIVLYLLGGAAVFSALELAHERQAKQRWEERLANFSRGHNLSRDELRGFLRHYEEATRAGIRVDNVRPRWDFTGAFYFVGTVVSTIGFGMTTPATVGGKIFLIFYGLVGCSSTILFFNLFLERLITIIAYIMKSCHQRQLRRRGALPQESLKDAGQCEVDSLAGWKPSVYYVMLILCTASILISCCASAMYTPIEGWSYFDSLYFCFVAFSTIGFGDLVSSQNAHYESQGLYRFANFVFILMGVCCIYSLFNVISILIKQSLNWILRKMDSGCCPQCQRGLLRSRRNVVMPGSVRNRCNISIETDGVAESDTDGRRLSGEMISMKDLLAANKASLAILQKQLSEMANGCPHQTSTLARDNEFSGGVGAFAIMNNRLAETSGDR
Protocol: From within the same chemotype as C101248, a structurally related compound (C101505) was tritiated for use in radioligand binding studies (specific activity 14 Ci/mmol). All radioligand binding assays were performed by Gifford Bioscience (Birmingham, UK). Cells were grown to approximately 90% confluence, washed twice with PBS and once with PBS with sucrose (10%) solution that was removed before the flasks were stored at −80 °C. Upon thawing, ice-cold lysis buffer (50 mM Tris-HCl; 5 mM MgCl2; 5 mM EDTA; protease inhibitor cocktail) was added to the flasks for 5 min (4 °C) and the cell layer scraped into collection tubes. The lysate was centrifuged at 13,000 g for 10 min (4 °C) to pellet the membranes. […] A sample of the homogenate was analysed for protein content using a BCA protein assay kit. […] Filters were then dried under a warm air stream, sealed in polyethylene, scintillation cocktail added, and the radioactivity counted in a MicroBeta TriLux counter (Wallac). […] The in vitro binding affinity (Ki) of C101248 was calculated from the experimental IC50 value using the Cheng-Prusoff equation (([Cheng and Prusoff, 1973]) Ki = IC50/(1 + ([L]/KD)), where [L] was the radioligand concentration in the displacement assay and KD was the radioligand dissociation constant determined from previous saturation binding studies.

IC50 [1]: 135 nM
inhibition at 10 µM (Adrenergic β2): 15%
inhibition at 10 µM [2]: 23%
% inhibition at 10 µM (n=2) (Sodium Channel, Site 2): 2%
Ki (THIK-1; Cheng-Prusoff from IC50, radioligand 3H-C101505): 57 nM
IC50 (THIK-1; radioligand 3H-C101505, HEK-hKCNK13 membranes, read-out: IC50, displacement of radioligand): 77 nM
SMILES: Nc1nonc1-c1nc2ccccc2n1Cc1ccncc1 [C101248]
inhibition at 10 µM (Calcium Channel CaV1.2): 12%
